{"source": "paper PMC5613243", "about": "(Chemical Science, 2017)", "target": "T1, XiaK (Streptomyces sp. SCSIO 02999, UniProt I3VFC1)", "T1 sequence (I3VFC1 1-596)": "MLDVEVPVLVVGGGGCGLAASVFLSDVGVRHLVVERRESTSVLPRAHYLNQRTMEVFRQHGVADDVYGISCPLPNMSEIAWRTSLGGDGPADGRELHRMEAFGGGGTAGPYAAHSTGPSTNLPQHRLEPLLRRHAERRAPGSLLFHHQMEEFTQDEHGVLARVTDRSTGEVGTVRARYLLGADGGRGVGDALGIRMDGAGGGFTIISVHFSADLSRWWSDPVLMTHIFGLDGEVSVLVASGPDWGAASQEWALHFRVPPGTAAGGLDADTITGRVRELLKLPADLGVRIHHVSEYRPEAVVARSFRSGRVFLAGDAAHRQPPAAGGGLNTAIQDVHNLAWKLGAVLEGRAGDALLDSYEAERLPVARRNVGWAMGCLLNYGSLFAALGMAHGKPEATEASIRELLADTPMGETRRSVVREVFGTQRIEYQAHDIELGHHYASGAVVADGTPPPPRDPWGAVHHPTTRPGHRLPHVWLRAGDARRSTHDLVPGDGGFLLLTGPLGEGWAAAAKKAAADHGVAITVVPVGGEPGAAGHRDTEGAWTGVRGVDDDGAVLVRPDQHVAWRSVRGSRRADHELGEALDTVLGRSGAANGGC", "experiment": "release of bound flavin by heat denaturation of purified protein", "assay_type": "binding", "details": "noncovalently bound, co-purified cofactor"}
{"smiles": "Cc1cc2nc3c(=O)[nH]c(=O)nc-3n(C[C@H](O)[C@H](O)[C@H](O)COP(=O)(O)OP(=O)(O)OC[C@H]3O[C@@H](n4cnc5c(N)ncnc54)[C@H](O)[C@@H]3O)c2cc1C", "note": "[FAD]", "values": [{"measurement": "release of bound flavin by heat denaturation of purified protein", "value": "released the noncovalently-bound flavin adenosine dinucleotide (FAD) cofactor upon heat denaturation"}]}
